From US7519519B1, “Signature projection score” (Entelos, Inc., priority 2002, dated 2009)
Read-outs that look alike come from different tables or passages of the source. Marks after values point to notes of the source that are not given here.

Experiments:
[1] = system: Leukocyte Depletion Signature; test: Signature Projection Score against the Leukocyte Depletion Signature, bone marrow gene expression data; conditions: maximum over treatments, normalized so highest training treatment = 100, * = p < 0.01, ** = p < 0.001
Description: Using only the genes in the signature, the amount and direction of gene expression changes in an experimental sample are compared (in terms of log ratio of expression signals) against a reference gene expression change (computed as the average over a characterizing set of treatments in our database). The sum over genes of the product of these two differences is computed, and normalized such that the highest score of any of the characterizing treatments when calculated in this way is 100.
After determination of the MTD and FED for a compound, each compound was dissolved in a vehicle for administration on day 1 of the study (additional daily doses were stored as frozen aliquots from this initial formulation). Each compound was administered to three individual male Sprague-Dawley rats for each of the two doses (MTD and FED) for one of four different times (0.25 day, 1 day, 3 days, and 5 days), yielding a total of up to 24 animals per compound study. Vehicle choice was based on solubility of the compound, effect of food on adsorption, and the vehicles used in the literature reports examined during the FED selection investigations, described above. Generally, the route and vehicle in which the FED was defined are used. When there was a choice of routes and vehicles, oral routes were chosen over injection routes. Many compounds, especially oncolytics, are only administrable intravenously. In such cases, the compound was administered as an intravenous formulation into the tail vein. Orally administered compounds were given dissolved in either water, 1% carboxymethycellulose (CMC) or corn oil. Intravenously and intraperitoneally administered compounds were given in 0.9% saline. Subcutaneously administered compounds were given in corn oil. Animal body weights were determined at 1 day and, where appropriate, at 4 days, before necropsy, and clinical observations were made on a daily basis. Control animals were dosed with vehicle only. Three male animals were used for each dose and time combination used for the compound treatment.
Tissue harvest and handling: After the allocated treatment time, the tissues from the animals were harvested. […] All the tissues collected were divided to provide samples for histopathological analyses, and the remainder of each tissue was then snap-frozen. […] Preparation of enriched mRNA: Punch biopsies were taken from the frozen tissues and were completely homogenized before being processed using the MagNA Pure robot. (Roche Diagnostics Corp., Indianapolis, Ind.) in combination with the MagNA Pure LC RNA Isolation kit II (Roche Diagnostics Corp). The amount of lysis buffer was adjusted to allow 1 ml per 50 mg for liver tissue, or 1 ml per 80 mg for all other tissues.

[2] = system: Leukocyte Depletion Signature; test: Signature Projection Score against the Leukocyte Depletion Signature, spleen gene expression data; format: in vivo, rat; conditions: maximum over treatments, normalized so highest training treatment = 100, * = p < 0.01, ** = p < 0.001
Experimental: (§1) Control animals were dosed with vehicle only.

[3] = system: leukocytes
Experimental: as §1
The Leukocyte Depletion Signature was derived by analysis of a subset of data from about 2000 in vivo rat drug treatments (using about 300 individual drugs) representing multiple tissues; the method for creation of this dataset is described in the general methods section.

[4] = time point 5 days, average of 3 animals, * = p < 0.01

Row | Compound | Max Bone Marrow Score (Signature Projection Score) [1] | Max Spleen Score (Signature Projection Score) [2] | Max Fold Serum Leukocyte Depletion ([3]; maximum over treatments) | Fold Decrease in leukocytes [3, 4] | Max Fold Serum Leukocyte Depletion ([3]; rat, in vivo) | Fold Decrease in leukocytes ([3]; rat, in vivo)
1 | O=P1(NCCCl)OCCCN1CCCl (stereo not drawn) [IFOSFAMIDE] | 79** | 11 | – | – | – | –
2 | O=C(O)CCCc1ccc(N(CCCl)CCCl)cc1 [CHLORAMBUCIL] | 9 | 65* | 7.08 fold | 7.08* fold | – | –
3 | CCO [ETHANOL] | 2 | – | – | – | 0 fold | –
4 | CO[C@@]12[C@H](COC(N)=O)C3=C(C(=O)C(C)=C(N)C3=O)N1C[C@@H]1N[C@@H]12 [MITOMYCIN C] | 7 | 57* | 3.53 fold | 3.53* fold | – | –
5 | CN(C)C=O [N,N-DIMETHYLFORMAMIDE] | 0 | 3 | – | – | – | –
6 | O=C1[O][Pt]2([NH][C@@H]3CCCC[C@H]3[NH]2)[O]C1=O [OXALIPLATIN] | 14 | – | 2.18 fold | – | – | –
7 | COc1c(C)c2c(c(O)c1C/C=C(\C)CCC(=O)OCCN1CCOCC1)C(=O)OC2 [MYCOPHENOLATE MOFETIL] | 9 | – | – | – | – | –
8 | Nc1ccn([C@@H]2O[C@H](CO)[C@@H](O)[C@@H]2O)c(=O)n1 [CYTARABINE] | 2 | 15 | – | – | 2.85 fold | –
9 | CN(Cc1cnc2nc(N)nc(N)c2n1)c1ccc(C(=O)N[C@@H](CCC(=O)O)C(=O)O)cc1 [METHOTREXATE] | 6 | 75** | – | – | 4.35 fold | 4.35* fold
10 | N.N.O=C([O-])C1(C(=O)[O-])CCC1.[Pt+2] [CARBOPLATIN] | 2 | 8 | 0 fold | – | – | –
11 | CCC1=C[C@@H]2CN(C1)Cc1c([nH]c3ccccc13)[C@@](C(=O)OC)(c1cc3c(cc1OC)N(C)[C@H]1[C@@](O)(C(=O)OC)[C@H](OC(C)=O)[C@]4(CC)C=CCN5CC[C@]31[C@@H]54)C2 [VINORELBINE] | 44* | – | – | – | 1.93 fold | –
12 | COc1cc([C@@H]2c3cc4c(cc3[C@@H](O[C@@H]3O[C@@H]5CO[C@@H](C)O[C@H]5[C@H](O)[C@H]3O)[C@H]3COC(=O)[C@H]23)OCO4)cc(OC)c1O [ETOPOSIDE] | 43* | 47* | – | – | 2.04 fold | –
13 | S=C=Nc1cccc2ccccc12 [1-NAPHTHYL ISOTHIOCYANATE] | 0 | – | 0 fold | – | – | –
14 | CC[C@]1(O)C[C@H]2CN(CCc3c([nH]c4ccccc34)[C@@](C(=O)OC)(c3cc4c(cc3OC)N(C=O)[C@H]3[C@@](O)(C(=O)OC)[C@H](OC(C)=O)[C@]5(CC)C=CCN6CC[C@]43[C@@H]65)C2)C1 [VINCRISTINE] | 5 | – | – | – | – | –
15 | O=NN(CCCl)C(=O)NCCCl [CARMUSTINE] | 39* | 31* | 4.49 fold | 4.49* fold | – | –
16 | Cn1cnc([N+](=O)[O-])c1Sc1ncnc2nc[nH]c12 [AZATHIOPRINE] | 11 | 19 | – | – | 0 fold | –

Row | Compound | Max Bone Marrow Score (Signature Projection Score) [1] | Max Spleen Score (Signature Projection Score) [2] | Max Fold Serum Leukocyte Depletion ([3]; maximum over treatments) | Fold Decrease in leukocytes [3, 4] | Max Fold Serum Leukocyte Depletion ([3]; rat, in vivo) | Fold Decrease in leukocytes ([3]; rat, in vivo)
17 | CC[C@]1(O)C[C@@H]2CN(CCc3c([nH]c4ccccc34)[C@@](C(=O)OC)(c3cc4c(cc3OC)N(C)[C@H]3[C@@](O)(C(=O)OC)[C@H](OC(C)=O)[C@]5(CC)C=CCN6CC[C@]43[C@@H]65)C2)C1 [VINBLASTINE] | 11 | – | – | – | – | –
18 | Nc1nc2nc[nH]c2c(=S)[nH]1 [THIOGUANINE] | 24* | 100** | – | – | 3.63 fold | 3.63* fold
19 | ClC(Cl)(Cl)Cl [CARBON TETRACHLORIDE] | 2 | – | 0 fold | – | – | –
20 | COc1cccc2c1C(=O)c1c(O)c3c(c(O)c1C2=O)C[C@@](O)(C(C)=O)C[C@@H]3O[C@H]1C[C@H](N)[C@H](O)[C@H](C)O1 [DAUNORUBICIN] | 54* | – | 2.77 fold | – | – | –
21 | CN(C)c1nc(N(C)C)nc(N(C)C)n1 [ALTRETAMINE] | 3 | 5 | – | – | 0 fold | –
22 | CCN(CC)N=O [N-NITROSODIETHYLAMINE] | 7 | 0 | – | – | – | –
23 | CS(=O)(=O)OCCCCOS(C)(=O)=O [BUSULFAN] | 19 | 32* | – | – | 0 fold | –
24 | N.N.[Cl][Pt][Cl] [CISPLATIN] | 7 | 25* | 2.01 fold | – | – | –
25 | C[C@H]1O[C@@H](n2cc(F)c(=O)[nH]c2=O)[C@H](O)[C@@H]1O [DOXIFLURIDINE] | 56* | – | – | – | 0 fold | –
26 | NC(=O)NO [HYDROXYUREA] | 13 | 15 | – | – | 2.92 fold | –
27 | Cc1oncc1C(=O)Nc1ccc(C(F)(F)F)cc1 [LEFLUNOMIDE] | 7 | 34* | – | – | 2.89 fold | –
28 | O=NN(CCCl)C(=O)NC1CCCCC1 [LOMUSTINE] | 3 | 23* | 0 fold | – | – | –
29 | Oc1c(Cl)cc(Cl)cc1Sc1cc(Cl)cc(Cl)c1O [BITHIONOL] | 4 | 2 | – | – | 0 fold | –
30 | CC(C)(c1ccc(O)cc1)c1ccc(O)cc1 [BISPHENOL A] | 0 | 3 | – | – | 0 fold | –
31 | COc1cccc2c1C(=O)c1c(O)c3c(c(O)c1C2=O)C[C@@](O)(C(=O)CO)C[C@@H]3O[C@H]1C[C@H](N)[C@H](O)[C@H](C)O1 [DOXORUBICIN] | 41* | 75** | – | – | 4.70 fold | –
32 | CC/C(=C(/CC)c1ccc(O)cc1)c1ccc(O)cc1 [DIETHYLSTILBESTROL] | 2 | 30* | – | – | – | –
